Experimental data taken from ChEMBL document CHEMBL1201862, “PubChem BioAssay data set” (2004).
The source made the active and inactive calls.

How the values were obtained:
HEK293 = test: EBV LMP1 TES2 canonical NF-kB signalling blockers – cell-based, HEK293, luciferase, cherry-pick, dose response (AID 588343); format: functional; details: Homo sapiens
Cytochrome P450 3A4 = Cytochrome P450 3A4 (Homo sapiens, UniProt P08684);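 further: CYP3A4 tested as one member of a cytochrome P450 panel screen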
Cytochrome P450 3A4, sequence (P08684 whole entry): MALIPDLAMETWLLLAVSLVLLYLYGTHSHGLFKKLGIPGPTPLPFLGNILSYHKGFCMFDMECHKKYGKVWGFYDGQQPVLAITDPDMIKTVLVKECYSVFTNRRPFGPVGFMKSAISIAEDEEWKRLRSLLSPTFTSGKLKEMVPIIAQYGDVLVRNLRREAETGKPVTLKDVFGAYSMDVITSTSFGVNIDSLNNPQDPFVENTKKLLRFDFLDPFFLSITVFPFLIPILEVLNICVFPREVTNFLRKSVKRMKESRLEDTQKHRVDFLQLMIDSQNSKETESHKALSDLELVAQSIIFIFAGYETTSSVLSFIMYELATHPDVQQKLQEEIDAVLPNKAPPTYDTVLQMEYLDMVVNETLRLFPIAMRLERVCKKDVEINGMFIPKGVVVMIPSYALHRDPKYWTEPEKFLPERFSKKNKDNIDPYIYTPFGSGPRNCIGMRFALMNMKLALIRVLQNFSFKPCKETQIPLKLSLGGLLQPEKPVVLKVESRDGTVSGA

Cytochrome P450 1A2 = target: T1, Cytochrome P450 1A2 (Homo sapiens, UniProt P05177);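 further: PubChem cytochrome P450 panel assay, CYP1A2 panel member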
T1 sequence (P05177 whole entry): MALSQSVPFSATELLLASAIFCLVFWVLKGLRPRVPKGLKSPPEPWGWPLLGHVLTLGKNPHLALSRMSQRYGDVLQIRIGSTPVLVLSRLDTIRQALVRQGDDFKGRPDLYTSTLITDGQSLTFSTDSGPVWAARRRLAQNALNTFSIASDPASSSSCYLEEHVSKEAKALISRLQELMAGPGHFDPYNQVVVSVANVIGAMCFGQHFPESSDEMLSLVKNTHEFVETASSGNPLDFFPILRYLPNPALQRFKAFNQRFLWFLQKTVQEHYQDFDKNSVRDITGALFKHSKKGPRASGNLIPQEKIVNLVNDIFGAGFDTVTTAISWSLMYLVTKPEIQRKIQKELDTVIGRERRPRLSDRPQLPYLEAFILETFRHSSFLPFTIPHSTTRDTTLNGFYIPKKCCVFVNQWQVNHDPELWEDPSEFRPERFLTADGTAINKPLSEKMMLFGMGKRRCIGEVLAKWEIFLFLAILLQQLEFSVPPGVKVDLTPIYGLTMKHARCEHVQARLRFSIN

Cytochrome P450 2C19 = Cytochrome P450 2C19 (Homo sapiens, UniProt P33261); test: Cytochrome panel assay with activity outcomes. Panel member name: p450-cyp2c19 Compounds with AC50 equal or less than 10 uM are considered active; format: functional; details: read-out: AC50
Cytochrome P450 2C19, sequence (P33261 whole entry): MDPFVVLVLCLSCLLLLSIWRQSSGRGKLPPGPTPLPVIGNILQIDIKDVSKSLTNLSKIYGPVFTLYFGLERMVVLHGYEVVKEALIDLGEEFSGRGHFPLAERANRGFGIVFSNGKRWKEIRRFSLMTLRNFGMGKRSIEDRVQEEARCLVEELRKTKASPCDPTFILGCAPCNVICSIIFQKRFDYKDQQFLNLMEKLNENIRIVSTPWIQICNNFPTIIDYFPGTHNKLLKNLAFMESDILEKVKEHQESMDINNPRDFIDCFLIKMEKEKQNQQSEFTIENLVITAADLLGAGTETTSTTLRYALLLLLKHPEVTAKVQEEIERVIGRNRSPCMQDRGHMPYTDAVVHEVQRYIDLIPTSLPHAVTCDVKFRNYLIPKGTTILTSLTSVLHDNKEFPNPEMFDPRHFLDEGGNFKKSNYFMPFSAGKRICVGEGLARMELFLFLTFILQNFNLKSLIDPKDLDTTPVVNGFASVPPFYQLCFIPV

Cytochrome P450 2C9 = Cytochrome P450 2C9 (Homo sapiens, UniProt P11712)
Cytochrome P450 2C9, sequence (P11712 whole entry): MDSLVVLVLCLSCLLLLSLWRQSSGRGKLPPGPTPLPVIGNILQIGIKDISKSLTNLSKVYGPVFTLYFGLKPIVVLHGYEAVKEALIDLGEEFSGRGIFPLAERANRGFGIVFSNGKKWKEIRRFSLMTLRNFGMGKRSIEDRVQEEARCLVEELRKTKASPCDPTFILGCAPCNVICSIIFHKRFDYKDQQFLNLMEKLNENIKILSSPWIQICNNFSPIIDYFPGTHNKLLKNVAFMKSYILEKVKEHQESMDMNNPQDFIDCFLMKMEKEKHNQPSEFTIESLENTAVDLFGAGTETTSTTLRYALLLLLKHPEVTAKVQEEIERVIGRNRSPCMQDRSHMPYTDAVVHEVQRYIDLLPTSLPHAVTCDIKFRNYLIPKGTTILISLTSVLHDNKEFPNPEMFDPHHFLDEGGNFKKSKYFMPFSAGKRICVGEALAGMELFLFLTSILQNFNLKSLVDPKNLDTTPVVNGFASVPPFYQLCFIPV

[1] = MIN6 cell viability loss – mouse insulinoma, cytotoxicity control, dose response (AID 2122); format: functional;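 further: confirmatory high-throughput counterscreen run to flag cytotoxic compounds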
[2] = decrease of insulin promoter-GFP reporter – imaging, high-content screening, mouse beta cells (AID 1628); format: functional; details: MIN6
[3] = target: T2, Corticotropin-releasing factor receptor 2/Corticotropin-releasing factor-binding protein (Homo sapiens, UniProt P24387+Q13324); test: activators of CRF receptor 2 with binding protein – uHTS hits, confirmation (AID 602473); format: functional; details: read-out: EC50_Mean
T2 sequence (Q13324 whole entry): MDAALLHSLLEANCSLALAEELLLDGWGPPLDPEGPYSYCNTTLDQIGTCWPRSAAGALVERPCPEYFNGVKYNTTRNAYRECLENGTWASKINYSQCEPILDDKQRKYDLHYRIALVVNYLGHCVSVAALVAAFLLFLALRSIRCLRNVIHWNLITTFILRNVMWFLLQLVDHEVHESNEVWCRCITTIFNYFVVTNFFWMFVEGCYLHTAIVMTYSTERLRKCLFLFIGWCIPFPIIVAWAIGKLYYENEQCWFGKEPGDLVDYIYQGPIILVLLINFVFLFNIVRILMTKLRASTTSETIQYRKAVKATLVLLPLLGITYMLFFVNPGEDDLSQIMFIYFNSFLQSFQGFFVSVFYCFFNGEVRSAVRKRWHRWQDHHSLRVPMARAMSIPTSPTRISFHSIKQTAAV
T2 sequence (P24387 whole entry): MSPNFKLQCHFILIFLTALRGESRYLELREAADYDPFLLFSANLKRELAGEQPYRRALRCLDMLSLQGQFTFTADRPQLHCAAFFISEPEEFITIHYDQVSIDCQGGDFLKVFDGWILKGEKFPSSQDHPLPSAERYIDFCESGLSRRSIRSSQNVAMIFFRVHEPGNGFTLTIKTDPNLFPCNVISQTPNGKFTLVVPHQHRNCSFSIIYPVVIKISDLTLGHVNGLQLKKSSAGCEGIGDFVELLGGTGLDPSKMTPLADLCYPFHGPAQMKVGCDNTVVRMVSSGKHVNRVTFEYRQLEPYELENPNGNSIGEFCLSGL

[4] = loss of viability in HepG2 cells – cell-based, CellTiter-Glo, cherry-picked, cytotoxicity control for Shn3 inhibitor project, dose response (AID 624134); format: functional
[5] = reduction of Shn3 3'UTR-driven luciferase in osteoblasts – cell-based, Clone20 osteoblasts, firefly luciferase, cherry-picked, dose response (AID 624132); format: functional;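 further: firefly luciferase luminescence from reporter carrying the Shn3 3'UTR in osteoblasts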
[6] = non-specific 3'UTR reporter inhibition in Clone20-Shn3RL – cell-based, Renilla luciferase, cherry-picked, counter-screen for Shn3 inhibitor project, dose response (AID 624133); format: functional
[7] = target: DNA dC->dU-editing enzyme APOBEC-3G (Homo sapiens, UniProt Q9HC16); format: functional;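 further: Dose-response counterscreen measuring inhibition of APOBEC3G DNA deaminase activity, run while confirming APOBEC3A inhibitors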
DNA dC->dU-editing enzyme APOBEC-3G, sequence (Q9HC16 whole entry): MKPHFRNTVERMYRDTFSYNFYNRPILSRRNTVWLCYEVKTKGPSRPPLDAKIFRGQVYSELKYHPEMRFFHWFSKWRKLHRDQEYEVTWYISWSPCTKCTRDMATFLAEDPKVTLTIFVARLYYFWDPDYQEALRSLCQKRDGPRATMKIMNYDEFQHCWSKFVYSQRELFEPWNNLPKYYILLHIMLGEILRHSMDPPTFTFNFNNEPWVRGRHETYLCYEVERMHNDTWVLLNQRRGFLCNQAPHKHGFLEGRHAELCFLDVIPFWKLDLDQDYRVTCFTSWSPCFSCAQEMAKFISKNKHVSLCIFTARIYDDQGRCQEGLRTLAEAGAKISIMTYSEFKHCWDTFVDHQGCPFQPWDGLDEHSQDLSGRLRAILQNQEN

Streptococcus = test: GAS UMAA2166 growth inhibition – luminescence, BacTiterGlo, counter-screen for streptokinase expression inhibitor project, dose response (AID 1915); format: functional, organism-based;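 further: potency for reduction of bacterial viability or growth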
[8] = target: DNA dC->dU-editing enzyme APOBEC-3A (Homo sapiens, UniProt P31941); test: Dose Response confirmation of small molecule APOBEC3A DNA Deaminase Inhibitors via a fluorescence-based single-stranded DNA deaminase assay. [Related pubchem assays (depositor defined):AID493011, AID493024]; format: functional
DNA dC->dU-editing enzyme APOBEC-3A, sequence (P31941 whole entry): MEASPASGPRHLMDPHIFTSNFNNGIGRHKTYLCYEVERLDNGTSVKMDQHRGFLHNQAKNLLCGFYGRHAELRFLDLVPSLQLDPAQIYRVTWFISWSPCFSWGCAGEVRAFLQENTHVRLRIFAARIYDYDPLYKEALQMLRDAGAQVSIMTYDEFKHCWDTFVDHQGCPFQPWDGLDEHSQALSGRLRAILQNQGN

Streptokinase A = target: T3, Streptokinase A (Streptococcus pyogenes serotype M1, UniProt P10520); test: viability-normalized secreted streptokinase activity reduction – plasminogen activation absorbance, OD405, dose response (AID 1914); format: functional, Streptococcus pyogenes M1 GAS;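 further: secreted streptokinase activity via plasminogen activation per viability signal from cell pellet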
T3 sequence (P10520 whole entry): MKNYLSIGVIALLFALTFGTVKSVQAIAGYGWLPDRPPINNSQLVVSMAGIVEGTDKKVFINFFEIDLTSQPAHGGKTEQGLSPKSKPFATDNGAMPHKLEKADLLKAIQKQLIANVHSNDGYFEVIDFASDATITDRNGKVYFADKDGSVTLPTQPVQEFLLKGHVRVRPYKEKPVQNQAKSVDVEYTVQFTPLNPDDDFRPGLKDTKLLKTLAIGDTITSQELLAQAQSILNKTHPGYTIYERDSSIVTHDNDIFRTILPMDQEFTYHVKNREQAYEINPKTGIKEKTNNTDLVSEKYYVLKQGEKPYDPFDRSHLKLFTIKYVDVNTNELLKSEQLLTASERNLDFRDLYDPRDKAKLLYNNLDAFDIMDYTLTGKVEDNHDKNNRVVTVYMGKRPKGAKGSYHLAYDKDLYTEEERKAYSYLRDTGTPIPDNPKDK

[9] = tested on: Streptococcus sp. 'group A'; test: Streptococcus pyogenes SK(-)GAS viability under kanamycin – luminescence, BacTiterGlo, confirmation, counter-screen for streptokinase expression inhibitor project, dose response (AID 1900); format: functional, organism-based
Mu-type opioid receptor = Mu-type opioid receptor (Homo sapiens, UniProt P35372); format: functional, cell-based;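 further: U2OS cells with beta-arrestin recruitment to OPRM1 by beta-gal complementation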
Mu-type opioid receptor, sequence (P35372 whole entry): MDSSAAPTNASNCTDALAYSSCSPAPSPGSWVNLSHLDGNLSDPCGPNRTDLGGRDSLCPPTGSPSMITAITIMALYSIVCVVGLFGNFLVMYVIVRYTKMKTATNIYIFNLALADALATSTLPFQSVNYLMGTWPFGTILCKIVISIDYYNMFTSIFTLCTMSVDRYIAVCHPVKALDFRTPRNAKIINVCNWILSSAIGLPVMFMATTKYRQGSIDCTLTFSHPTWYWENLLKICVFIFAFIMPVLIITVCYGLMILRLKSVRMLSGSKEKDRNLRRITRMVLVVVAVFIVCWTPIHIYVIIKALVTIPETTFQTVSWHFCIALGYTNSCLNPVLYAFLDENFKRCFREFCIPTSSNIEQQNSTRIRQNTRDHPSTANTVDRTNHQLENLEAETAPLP

[10] = target: 5-hydroxytryptamine receptor 2A (Mus musculus, UniProt P35363); format: functional, cell-based;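 further: CHO-K1 cells with tagged receptor and beta-arrestin; agonist potency measured as compound-induced activation of the receptor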
5-hydroxytryptamine receptor 2A, sequence (P35363 whole entry): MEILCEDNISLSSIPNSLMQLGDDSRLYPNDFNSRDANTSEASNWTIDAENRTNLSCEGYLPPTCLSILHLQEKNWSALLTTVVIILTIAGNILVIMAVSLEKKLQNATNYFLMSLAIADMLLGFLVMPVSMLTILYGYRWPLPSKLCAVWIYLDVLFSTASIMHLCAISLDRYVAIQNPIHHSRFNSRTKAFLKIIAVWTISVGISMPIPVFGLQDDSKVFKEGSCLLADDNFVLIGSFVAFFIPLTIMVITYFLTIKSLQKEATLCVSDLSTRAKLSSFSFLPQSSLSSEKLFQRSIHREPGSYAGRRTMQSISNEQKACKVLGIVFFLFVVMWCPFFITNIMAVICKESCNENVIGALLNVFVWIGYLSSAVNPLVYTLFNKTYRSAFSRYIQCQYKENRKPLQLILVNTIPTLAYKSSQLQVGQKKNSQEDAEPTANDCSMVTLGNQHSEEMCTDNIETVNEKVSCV

[11] = Counterscreen for inhibitors of Trypanosoma brucei methionyl tRNA synthetase (MetRS): Luminescence-based cell-based high throughput dose response assay to identify compounds that are cytotoxic to Jurkat human T lymphocyte cells.; format: functional
[12] = target: T4, Calpain-2 catalytic subunit (Sus scrofa, UniProt P43367); test: m-calpain protease blockers, concentration series – biochemical, fluorogenic peptide substrate, dose response (AID 1420); format: functional
T4 sequence (P43367 whole entry): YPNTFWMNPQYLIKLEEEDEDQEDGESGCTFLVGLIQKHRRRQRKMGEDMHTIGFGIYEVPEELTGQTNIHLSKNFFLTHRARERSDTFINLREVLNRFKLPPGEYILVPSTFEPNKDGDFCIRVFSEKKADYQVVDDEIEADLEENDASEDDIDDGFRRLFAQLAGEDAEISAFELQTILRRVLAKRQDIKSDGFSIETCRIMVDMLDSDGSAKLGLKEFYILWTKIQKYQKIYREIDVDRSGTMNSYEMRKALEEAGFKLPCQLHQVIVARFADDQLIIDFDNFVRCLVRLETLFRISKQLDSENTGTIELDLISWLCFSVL

[13] = target: T5, Methionyl-tRNA synthetase, putative (Trypanosoma brucei brucei, UniProt Q38C91); format: functional, Trypanosoma brucei brucei strain 927/4 GUTat10.1
T5 sequence (Q38C91 whole entry): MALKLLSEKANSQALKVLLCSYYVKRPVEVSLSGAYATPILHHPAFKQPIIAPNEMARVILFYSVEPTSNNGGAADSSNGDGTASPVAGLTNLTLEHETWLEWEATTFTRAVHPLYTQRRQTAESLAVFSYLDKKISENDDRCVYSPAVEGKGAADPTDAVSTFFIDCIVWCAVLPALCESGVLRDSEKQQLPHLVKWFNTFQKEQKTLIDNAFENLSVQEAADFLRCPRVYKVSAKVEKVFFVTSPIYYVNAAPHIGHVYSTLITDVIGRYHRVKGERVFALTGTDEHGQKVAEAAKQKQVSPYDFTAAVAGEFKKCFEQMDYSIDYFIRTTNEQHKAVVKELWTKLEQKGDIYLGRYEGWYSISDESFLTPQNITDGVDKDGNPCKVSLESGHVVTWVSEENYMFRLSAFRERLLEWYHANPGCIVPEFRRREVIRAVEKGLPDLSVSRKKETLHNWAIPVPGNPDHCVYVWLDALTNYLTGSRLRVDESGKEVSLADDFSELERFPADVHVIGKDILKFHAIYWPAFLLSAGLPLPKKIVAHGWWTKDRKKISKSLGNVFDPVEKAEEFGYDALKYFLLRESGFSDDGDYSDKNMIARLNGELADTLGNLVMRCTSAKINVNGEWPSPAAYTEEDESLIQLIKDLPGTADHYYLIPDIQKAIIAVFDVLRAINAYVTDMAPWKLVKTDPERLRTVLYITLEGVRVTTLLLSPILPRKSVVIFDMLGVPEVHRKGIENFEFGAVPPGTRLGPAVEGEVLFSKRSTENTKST

Cc1cc(C(=O)CN2C(=O)c3ccccc3C2=O)c(C)n1Cc1cccs1
AC50 (HEK293): 4.41 µM (active)

CC(C)(C)C(=O)N1CCN(c2ccc([N+](=O)[O-])c(NCC3CCCO3)c2)CC1 (configuration not stated)
AC50 (Cytochrome P450 3A4): inconclusive
AC50 (Cytochrome P450 1A2): 14.1 µM (inconclusive)
AC50 (Cytochrome P450 2C19): 25.1 µM (inconclusive)

O=[N+]([O-])c1cccnc1N1CCOCC1
AC50 (Cytochrome P450 3A4): inconclusive
AC50 (Cytochrome P450 1A2): 28.2 µM (inconclusive)
AC50 (Cytochrome P450 2C9): 12.6 µM (inconclusive)

C=CCn1c(-c2ccc(OC)cc2)nc2ccccc21
IC50 [1]: 4.36 µM (active)
IC50 [2]: 4.04 µM (active)
EC50 [3]: > 53 µM (inactive)

C=CCn1c(NCCc2ccccc2)nc2c1c(=O)n(C)c(=O)n2C
AC50 [4]: 57.2 µM (active)
AC50 [5]: 1.83 µM (active)
IC50 [1]: 1.86 µM (active)
IC50 [2]: 2.56 µM (active)
AC50 [6]: 7.83 µM (active)

CCOC(=O)c1cnc2cc(Cl)c(OC)cc2c1NCC1CCCO1 (configuration not stated)
IC50 [1]: 15 µM (inactive)
IC50 [2]: 2.7 µM (active)

O=C(c1cccc(F)c1)N1CCC2(CC1)CN(c1ccccc1)C2
AC50 (Cytochrome P450 3A4): inconclusive

O=C(c1cnccn1)N1CCC2(CC1)CN(C(c1ccccc1)c1ccccc1)C2
AC50 (Cytochrome P450 3A4): inconclusive
AC50 (Cytochrome P450 1A2): 25.1 µM (inconclusive)

O=C(c1ccncc1)N1CCC2(CC1)CN(C(c1ccccc1)c1ccccc1)C2
AC50 (Cytochrome P450 3A4): inconclusive
AC50 (Cytochrome P450 1A2): 15.8 µM (inconclusive)

CC(=O)c1cccc(OC(=O)c2ccc3c(=O)n4c(nc3c2)CCC4)c1
IC50 [7]: 5.35 µM (active)
EC50 (Streptococcus): 14.4 µM (active)
IC50 [8]: 6.27 µM (active)
EC50 (Streptokinase A): > 150 µM (not active)
EC50 [9]: 12.6 µM (active)

CCC(c1nnnn1-c1ccc2c(c1)OCCO2)N1CCN(C/C=C/c2ccccc2)CC1 (configuration not stated)
EC50 (Mu-type opioid receptor): 92.6 µM (inactive)
EC50 [10]: 76.2 µM (inactive)

CO/N=C(\c1nonc1N)N1CCN(c2ccc(Cl)cc2[N+](=O)[O-])CC1
IC50 [11]: 83.3 µM (inactive)
IC50 [12]: > 50 µM (not active)
IC50 [13]: 119 µM (inactive)
